Measurements: patent US20260356851A1, “TRICYCLIC COMPOUNDS AND USES THEREOF” (HUTCHMED LIMITED, priority 2023, published 2026)

Assays:
Type in all cases: cell-based
[1] = molecular target: T1, pERK1/2 (Thr202/Tyr204), PANC-1 (KRAS G121D) (Homo sapiens, UniProt P01116, G12D); assay: Assay of intracellular pERK1/2 (Thr202/Tyr204) phosphorylation in PANC-1 cells (KRAS G12D); conditions: pERK1/2, 2 days, read-out: PANC-1 (KRAS G12D) IC50
T1 construct: pERK1/2 HTRF read-out
Summary of the method: (§1)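 HTRF detection of Thr202/Tyr204-phosphorylated ERK1/2 (665/615 nm ratio) in lysates from cells treated 2 days with serially 3-fold diluted compound.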

[2] = molecular target: T2, pERK1/2 (Thr202/Tyr204), NCI-1H441 (KRAS G12V) (Homo sapiens, UniProt P01116, G12V); assay: Assay of intracellular pERK1/2 (Thr202/Tyr204) phosphorylation in NCI-H441 cells (KRAS G12V); conditions: pERK1/2, 2 days, read-out: NCI-H441 (KRAS G12V) IC50
T2 construct: pERK1/2 HTRF read-out
T2 sequence (P01116 1-188 isoform P01116-2 G12V): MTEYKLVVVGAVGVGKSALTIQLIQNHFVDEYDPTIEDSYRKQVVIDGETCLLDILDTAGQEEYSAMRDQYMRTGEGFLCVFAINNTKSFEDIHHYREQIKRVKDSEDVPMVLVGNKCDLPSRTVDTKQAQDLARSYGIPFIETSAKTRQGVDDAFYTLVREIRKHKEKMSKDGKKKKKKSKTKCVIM
Summary of the method: as §1

[3] = molecular target: T3, pERK1/2 (Thr202/Tyr204), NCI-1H358 (KRAS G12C) (Homo sapiens, UniProt P01116, G12C); assay: Assay of intracellular pERK1/2 (Thr202/Tyr204) phosphorylation in NCI-H358 cells (KRAS G12C); conditions: pERK1/2, 2 days, read-out: NCI-H358 (KRAS G12C) IC50
T3 construct: pERK1/2 HTRF read-out
T3 sequence (P01116 1-188 isoform P01116-2 G12C): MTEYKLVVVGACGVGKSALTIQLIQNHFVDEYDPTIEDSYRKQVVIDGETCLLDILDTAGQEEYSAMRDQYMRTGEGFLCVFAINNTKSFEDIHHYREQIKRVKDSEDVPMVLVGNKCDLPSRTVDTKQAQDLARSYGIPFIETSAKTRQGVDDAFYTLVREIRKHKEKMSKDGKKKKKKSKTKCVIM
Summary of the method: as §1

T1 sequence (P01116 1-188 isoform P01116-2 G12D): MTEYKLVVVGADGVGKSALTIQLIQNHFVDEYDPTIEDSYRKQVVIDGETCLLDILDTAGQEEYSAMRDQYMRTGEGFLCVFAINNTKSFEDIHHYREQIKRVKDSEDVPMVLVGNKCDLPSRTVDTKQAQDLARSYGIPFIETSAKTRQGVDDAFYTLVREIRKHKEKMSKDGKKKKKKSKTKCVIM

| SMILES | IC50 [1] [nM] | IC50 [2] [nM] | IC50 [3] [nM] |
| --- | --- | --- | --- |
| CC(c1cccnc1N)N1CCOc2nc(-c3cc(O)cc(F)c3C3CC3)c(F)c3nc(OC[C@@H]4CCN4CC(F)F)nc1c23 (single isomer, unassigned) [Compound 23, 3-(10-((R or S)-1-(2-aminopyridin-3-yl)ethyl)-2-(((S)-1-(2,2-difluoroethyl)azetidin-2-yl)methoxy)-4-fluoro-9,10-dihydro-8H-7-oxa-1,3,6,10-tetraazacyclohepta[de]naphthalen-5-yl)-4-cyclopropyl-5-fluorophenol] | > 1000 | > 1000 | > 1000 |
| [2H]C1([2H])CN(C(C)c2cccnc2N)c2nc(OC[C@@]34CCCN3C[C@H](F)C4)nc3c(F)c(-c4cc(N)cc(C)c4C(F)(F)F)nc(c23)O1 (stereo partly drawn) [Compound 140] | 1 | 0.9 | 0.3 |
| Cc1c(F)c(N)cc(-c2nc3c4c(nc(OC[C@@]56CCCN5C[C@H](F)C6)nc4c2F)N(C(C)c2ccc[n+]([O-])c2N)CCO3)c1C(F)(F)F (stereo partly drawn) [Compound 226] | > 100 | > 100 | 43 |
| CC(c1cccnc1N)N1CCOc2nc(-c3cc(O)cc4ccc(F)c(F)c34)c(F)c3nc(OC[C@@H]4CC(F)(F)CN4C)nc1c23 (single isomer, unassigned) [Compound 50, 4-(10-((R or S)-1-(2-aminopyridin-3-yl)ethyl)-2-(((S)-4,4-difluoro-1-methylpyrrolidin-2-yl)methoxy)-4-fluoro-9,10-dihydro-8H-7-oxa-1,3,6,10-tetraazacyclohepta[de]naphthalen-5-yl)-5,6-difluoronaphthalen-2-ol] | > 1000 | > 1000 | 916 |
| [2H]C([2H])(Oc1nc2c3c(nc(-c4cc(N)cc(C)c4C(F)(F)F)c(F)c3n1)OCCN2C(C)c1cccnc1N)[C@@H]1CCC([2H])([2H])N1C([2H])([2H])[2H] (single isomer, unassigned) [Compound 103, 3-((R or S)-1-(5-(5-amino-3-methyl-2-(trifluoromethyl)phenyl)-4-fluoro-2-(((S)-1-(methyl-d3)pyrrolidin-2-yl-5,5-d2)methoxy-d2)-8,9-dihydro-10H-7-oxa-1,3,6,10-tetraazacyclohepta[de]naphthalen-10-yl)ethyl)pyridin-2-amine] | > 100 | > 100 | 60 |
| CC(c1cccnc1N)N1CCOc2nc(-c3cc(N)cc(Cl)c3C3CC3)c(F)c3nc(OC[C@@]45CCCN4C[C@H](F)C5)nc1c23 (single isomer, unassigned) [Compound 74, 3-((R or S)-1-(5-(5-amino-3-chloro-2-cyclopropylphenyl)-4-fluoro-2-(((2R,7aS)-2-fluorotetrahydro-1H-pyrrolizin-7a(5H)-yl)methoxy)-8,9-dihydro-10H-7-oxa-1,3,6,10-tetraazacyclohepta[de]naphthalen-10-yl)ethyl)pyridin-2-amine] | 4 | 0.4 | 0.2 |
| Cc1cc(N)cc(-c2nc3c4c(nc(OC[C@@H]5C[C@@H](F)CN5C)nc4c2F)N(C(C)c2cccnc2N)CCO3)c1C(F)(F)F (single isomer, unassigned) [Compound 80, 3-((R or S)-1-(5-(5-amino-3-methyl-2-(trifluoromethyl)phenyl)-4-fluoro-2-(((2S,4R)-4-fluoro-1-methylpyrrolidin-2-yl)methoxy)-8,9-dihydro-10H-7-oxa-1,3,6,10-tetraazacyclohepta[de]naphthalen-10-yl)ethyl)pyridin-2-amine] | 19 | 0.7 | 0.5 |
| Cc1cc(N)cc(-c2nc3c4c(nc(OCC5(CN(C)C)CC5)nc4c2F)N(C(C)c2cccnc2N)CCO3)c1C(F)(F)F (stereo not drawn) [Compound 69] | 95 | 10 | 3 |
| Cc1c(F)c(N)cc(-c2nc3c4c(nc(OC[C@@]56CCCN5C[C@@]5(CC5(F)F)C6)nc4c2F)N(C(C)c2cccnc2N)CCO3)c1C(F)(F)F (single isomer, unassigned; diastereomer 1) [Compound 238, (*)3-(1-(5-(5-amino-4-fluoro-3-methyl-2-(trifluoromethyl)phenyl)-2-(((1R or 1S,7a′S)-2,2-difluorodihydro-1′H,3′H-spiro[cyclopropane-1,2′-pyrrolizin]-7a′(5′H)-yl)methoxy)-4-fluoro-8,9-dihydro-10H-7-oxa-1,3,6,10-tetraazacyclohepta[de]naphthalen-10-yl)ethyl)pyridin-2-amine (diastereomer 1)] | 0.8 | 0.6 | 0.2 |
| Cc1ccnc(N)c1C(C)N1CCOc2nc(-c3cc(N)c(F)c(C)c3C(F)(F)F)c(F)c3nc(OC[C@@]45CCCN4C[C@H](F)C5)nc1c23 (single isomer, unassigned) [Compound 257, 3-((R or S)-1-(5-(5-amino-4-fluoro-3-methyl-2-(trifluoromethyl)phenyl)-4-fluoro-2-(((2R,7aS)-2-fluorotetrahydro-1H-pyrrolizin-7a(5H)-yl)methoxy)-8,9-dihydro-10H-7-oxa-1,3,6,10-tetraazacyclohepta[de]naphthalen-10-yl)ethyl)-4-methylpyridin-2-amine] | 51 | 6 | 2 |
| CC(c1cccnc1N)N1CCOc2nc(-c3cccc4sc(N)nc34)c(F)c3nc(OC[C@@H]4CCN4CC(F)F)nc1c23 (stereo partly drawn) [Compound 17] | > 1000 | 108 | 29 |
| Cc1cc(N)cc(-c2nc3c4c(nc(OC[C@@H]5C[C@@H](F)CN5C)nc4c2F)N(C(C)c2cccnc2N)CCO3)c1C(F)(F)F (stereo partly drawn) [Compound 73] | 31 | 2 | 0.9 |
| [2H]C1([2H])CC[C@@]2(C([2H])([2H])Oc3nc4c5c(nc(-c6cc(O)cc(Cl)c6C6CC6)c(F)c5n3)OCCN4[C@H](C)c3cccnc3N)C[C@@H](F)CN12 (single isomer, unassigned) [Compound 130, 3-(10-((R or S)-1-(2-aminopyridin-3-yl)ethyl)-4-fluoro-2-(((2R,7aS)-2-fluorotetrahydro-1H-pyrrolizin-7a(5H)-yl-5,5-d2)methoxy-d2)-9,10-dihydro-8H-7-oxa-1,3,6,10-tetraazacyclohepta[de]naphthalen-5-yl)-5-chloro-4-cyclopropylphenyl] | > 100 | > 100 | > 100 |

Now from value to compound:

| IC50 [1] [nM] | IC50 [2] [nM] | IC50 [3] [nM] | SMILES |
| --- | --- | --- | --- |
| > 100 | > 100 | > 100 | Cc1cc2[nH]ncc2c(-c2nc3c4c(nc(OC[C@@]56CCCN5C[C@H](F)C6)nc4c2F)N(C(C)c2cccnc2N)[C@H]2CCC[C@@H]2O3)c1C(F)(F)F (stereo partly drawn) [Compound 393] |
| 2 | 5 | 2 | Cc1cc2[nH]nc(C)c2c(-c2nc3c4c(nc(OC[C@@]56CCCN5C[C@H](F)C6)nc4c2F)N(C(C)c2cccnc2N)[C@@H](C)CO3)c1C(F)(F)F (stereo partly drawn) [Compound 377] |
| 0.4 | 0.8 | 0.4 | CC(c1cccnc1N)N1c2nc(OC[C@@]34CCCN3C[C@H](F)C4)nc3c(F)c(-c4cc(O)cc5ccc(F)c(F)c45)nc(c23)OC[C@@H]1C (single isomer, unassigned) [Compound 275, 4-((S)-10-((R or S)-1-(2-aminopyridin-3-yl)ethyl)-4-fluoro-2-(((2R,7aS)-2-fluorotetrahydro-1H-pyrrolizin-7a(5H)-yl)methoxy)-9-methyl-9,10-dihydro-8H-7-oxa-1,3,6,10-tetraazacyclohepta[de]naphthalen-5-yl)-5,6-difluoronaphthalen-2-ol] |
| > 100 | > 100 | > 100 | COc1cc2cn[nH]c2cc1-c1nc2c3c(nc(OC[C@@]45CCCN4C[C@H](F)C5)nc3c1F)N(C(C)c1cccnc1N)[C@@H](C)CO2 (stereo partly drawn) [Compound 316] |
| 0.2 | 0.6 | 0.3 | Cc1cc(N)cc(-c2nc3c4c(nc(OC[C@@]56CCCN5C[C@H](F)C6)nc4c2F)N(C(C)c2cccnc2N)[C@@H](C)CO3)c1C(F)(F)F (single isomer, unassigned) [Compound 267] |
| 0.6 | 0.3 | 0.2 | CC(c1cccnc1N)N1c2nc(OC[C@@]34CCCN3C[C@H](F)C4)nc3c(F)c(-c4cc(N)c(F)c(Cl)c4C(F)(F)F)nc(c23)OC[C@@H]1C (single isomer, unassigned) [Compound 269, 3-((R or S)-1-((S)-5-(5-amino-3-chloro-4-fluoro-2-(trifluoromethyl)phenyl)-4-fluoro-2-(((2R,7aS)-2-fluorotetrahydro-1H-pyrrolizin-7a(5H)-yl)methoxy)-9-methyl-8,9-dihydro-10H-7-oxa-1,3,6,10-tetraazacyclohepta[de]naphthalen-10-yl)ethyl)pyridin-2-amine] |
| 0.7 | 0.8 | < 0.457 | CCc1c(F)ccc2cc(O)cc(-c3nc4c5c(nc(OCC6(CN(C)C7CC7)CC6)nc5c3F)N(C(C)c3cccnc3N)[C@@H](C)CO4)c12 (stereo partly drawn) [Compound 397] |
| 6 | 0.7 | 0.4 | CC(c1cccnc1N)N1c2nc(OC[C@@]34CCCN3C[C@H](F)C4)nc3cc(-c4c5ccccc5cc5[nH]ncc45)nc(c23)OC[C@@H]1C (stereo partly drawn) [Compound 386] |
| 1 | 0.3 | 0.1 | CC(c1cccnc1N)N1c2nc(OC[C@@H]3C[C@@H](F)CN3C)nc3c(F)c(-c4cc(O)cc(Cl)c4C4CC4)nc(c23)OC[C@@H]1C (stereo partly drawn) [Compound 291] |
